Assay results published in patent US5418232A, “Diazabicycloalkene derivatives” (Daiichi Pharmaceutical Co., Ltd., priority 1992, dated 1995).

How the values were obtained:
[1] = test system: spontaneously hypertensive rats; assay: Blood pressure fall after i.v. compound with or without glibenclamide pretreatment; type: in vivo, rat
Method: 2) Twenty-two-week-old male spontaneously hypertensive rats (body weight, 350-420 g) were given an intravenous injection of 30 mg/kg of glibenclamide (Sigma Chemical Company) having an antagonistic activity against potassium channel openers or, as a control, a solvent.

[2] = test system: spontaneously hypertensive rats; assay: Effect on renal blood flow (Doppler probe); type: in vivo, rat; conditions: for Increase in Renal Blood Flow 1 Hr after Administration: oral, dose which reduced blood pressure by about 50 mmHg; for activity in increasing the renal blood flow vs reference drug (in words): vs EMD57283
Method: Twenty-week-old male spontaneously hypertensive rats (body weight: 350-430 g) were anesthetized with pentobarbital (30 mg/kg, i.p.). An incision was made in the abdomen on the left side, and a Doppler probe for blood flow measurement was fitted to the left renal artery, and the code (wire lead) of the probe was passed under the back skin and taken out from the back of the neck. After 1 week from the operation, the code of the probe was connected to a Doppler blood flow meter to start measurement of the renal blood flow. After the renal blood flow reached to a steady state, a test compound was orally administered, and changes in renal blood flow were observed up to 9 hours. The test compound was used at a dose which reduced blood pressure by about 50 mmHg.

male mice = assay: Acute toxicity; type: in vivo; conditions: oral 2 g/kg
Acute toxicity = type: in vivo; conditions: mouse, in vivo, po
[3] = test system: spontaneously hypertensive rats; assay: Antihypertensive activity in spontaneously hypertensive rats (oral, tail-cuff); type: in vivo, rat
Method: Male spontaneously hypertensive rats (16 to 20-week-old; body weight: 300-400 g) fed ab lib. were forceably given oral administration of a test compound suspended in 0.5% (w/v) carboxymethyl cellulose aqueous solution. After 1, 2, 4, 6, 8, 24, 30 or 48 hours from the administration, the systolic blood pressure was measured by a tail-cuff method described in Arzneimittel-Forschung, Vol. 18, pp. 1285-1287 (1968)).
The antihypertensive activity of the test compound was obtained as an effective dose for reducing blood pressure by 50 mmHg (ED50mmHg). Further, the time of onset of the maximum activity and the maximum increase in heart rate at a dose for reducing blood pressure by 50 to 60 mmHg were measured.
The statistical difference between a test compound and EMD57283 was analyzed by the Student's t-test.

Potassium channel = biological target: T1, Potassium channel (Rattus norvegicus, UniProt Q63563); assay: Potassium channel opening activity, 86Rb release from excised rat aorta segment; type: cell-based, Wistar rat; conditions: for ECAUC0.2 (effective concentration at which the area under the peak of the 86Rb release rate reached 0.2): rat aorta segment surface-perfused with test compound for 10 minutes
T1 construct: a segment of an excised aorta of a Wistar rat; from tissue; host or cells: excised aorta segment of Wistar rat
T1 sequence (Q63563 1-1545 isoform Q63563-2): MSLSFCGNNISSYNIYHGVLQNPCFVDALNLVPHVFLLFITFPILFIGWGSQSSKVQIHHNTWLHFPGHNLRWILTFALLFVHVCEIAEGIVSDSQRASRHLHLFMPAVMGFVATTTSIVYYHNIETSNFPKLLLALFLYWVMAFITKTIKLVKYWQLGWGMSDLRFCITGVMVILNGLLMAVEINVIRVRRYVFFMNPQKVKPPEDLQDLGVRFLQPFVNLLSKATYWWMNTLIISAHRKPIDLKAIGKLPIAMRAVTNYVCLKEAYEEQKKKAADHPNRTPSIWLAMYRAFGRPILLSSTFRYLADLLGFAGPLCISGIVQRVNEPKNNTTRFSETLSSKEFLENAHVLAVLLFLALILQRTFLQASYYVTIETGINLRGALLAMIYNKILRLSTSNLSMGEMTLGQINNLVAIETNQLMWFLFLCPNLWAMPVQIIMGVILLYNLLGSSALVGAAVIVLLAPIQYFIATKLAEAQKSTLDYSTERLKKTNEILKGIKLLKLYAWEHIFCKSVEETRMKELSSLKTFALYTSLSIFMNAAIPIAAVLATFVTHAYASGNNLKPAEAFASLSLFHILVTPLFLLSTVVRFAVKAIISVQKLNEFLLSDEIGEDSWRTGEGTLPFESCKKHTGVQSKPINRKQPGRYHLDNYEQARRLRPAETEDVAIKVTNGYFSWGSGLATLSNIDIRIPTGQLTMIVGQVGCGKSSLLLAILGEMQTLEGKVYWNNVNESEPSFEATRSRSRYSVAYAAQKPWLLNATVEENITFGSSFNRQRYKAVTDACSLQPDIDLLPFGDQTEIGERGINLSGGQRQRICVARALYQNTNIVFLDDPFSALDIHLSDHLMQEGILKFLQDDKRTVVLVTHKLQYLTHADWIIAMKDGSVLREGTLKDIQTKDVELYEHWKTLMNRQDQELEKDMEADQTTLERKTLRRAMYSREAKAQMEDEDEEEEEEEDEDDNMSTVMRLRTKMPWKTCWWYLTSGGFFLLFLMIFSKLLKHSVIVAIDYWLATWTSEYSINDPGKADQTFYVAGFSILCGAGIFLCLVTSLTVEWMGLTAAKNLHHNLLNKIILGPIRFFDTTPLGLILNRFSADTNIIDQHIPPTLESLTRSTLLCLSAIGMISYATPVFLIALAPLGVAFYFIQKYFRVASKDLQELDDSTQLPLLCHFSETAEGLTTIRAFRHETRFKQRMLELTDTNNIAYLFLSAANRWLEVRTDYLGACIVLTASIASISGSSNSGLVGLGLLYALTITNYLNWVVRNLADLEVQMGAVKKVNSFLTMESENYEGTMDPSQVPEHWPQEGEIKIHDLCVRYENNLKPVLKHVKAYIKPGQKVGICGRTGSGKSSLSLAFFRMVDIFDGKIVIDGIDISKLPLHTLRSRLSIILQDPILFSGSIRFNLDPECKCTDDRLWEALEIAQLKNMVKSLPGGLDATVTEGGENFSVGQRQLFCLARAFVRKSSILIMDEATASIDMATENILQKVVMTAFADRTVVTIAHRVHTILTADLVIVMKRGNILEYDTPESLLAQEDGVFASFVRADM
T1 sequence (Q63664 whole entry partner, the tested form may be a part): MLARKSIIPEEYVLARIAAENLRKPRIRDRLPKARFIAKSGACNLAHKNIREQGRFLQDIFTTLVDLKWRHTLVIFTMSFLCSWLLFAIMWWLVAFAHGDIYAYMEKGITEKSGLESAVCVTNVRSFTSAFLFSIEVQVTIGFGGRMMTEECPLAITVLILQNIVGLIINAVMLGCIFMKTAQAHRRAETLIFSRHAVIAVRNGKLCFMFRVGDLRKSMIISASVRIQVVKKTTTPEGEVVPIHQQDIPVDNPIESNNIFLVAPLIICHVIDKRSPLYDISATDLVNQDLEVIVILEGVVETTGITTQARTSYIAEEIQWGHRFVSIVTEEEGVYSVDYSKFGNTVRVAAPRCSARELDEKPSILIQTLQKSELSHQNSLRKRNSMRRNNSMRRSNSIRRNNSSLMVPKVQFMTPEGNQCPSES

male HOS-Donryu rats = assay: Antianginal activity, vasopressin-induced ST segment depression; type: in vivo, rat; conditions: for S Value (area of ST segment depression over 5 minutes): i.v., Example 47 0.01, Nifedipine 0.03, Cromakalim 0.01 mg/kg, vasopressin 0.5 U/kg
Method: The test was carried out in accordance with the method of Hiramatsu, et al. (see Japanese Journal of Pharmacology, Vol. 20, p. 313 (1970)). […] A cannula for blood pressure measurement was inserted into the left femoral artery, and a cannula for drug administration was inserted into the left femoral vein. […] Then, ECG was taken every 30 seconds over a period of 5 minutes to observe depression of the ST segment. A control group was given the solvent for the drug (a solution in which 5% dimethyl sulfoxide, 5% polyethylene glycol 200 and 1% cremophor were dissolved in physiological saline).

Guinea Pig Tracheae = assay: Relaxing activity in guinea pig tracheae contracted with 30 mM potassium chloride; type: cell-based; conditions: Cavia porcellus; relaxation by 10^-8 g/ml isoproterenol as 100%; read-out: EC50 (concentration inducing 50% relaxation)
Method: Male guinea pigs (body weight: 400-650 g) were sacrificed by exsanguination, and tracheae were excised.
Tracheal responses were measured isometrically using a transducer "EF-601G" (manufactured by Nihon Koden Kogyo Co., Ltd.) and recorded on a multi-pen recorder "R64 GP" (manufactured by Rika Denki Co., Ltd.). The initial tension in the tracheal preparation was set up at 1 g after the preparation had equilibrated for about 60 minutes, a 30 mM potassium chloride was added to cause contraction.

[4] = dose reducing blood pressure by 50 to 60 mmHg

**Q.** With CC1(C)Oc2ccc(C#N)cc2[C@@H](OC2=NN(Cc3ccccc3)C(=O)C3CC23)[C@@H]1O (relative stereo) [Example 1, 3,4-trans-4-(3-Benzyl-2-oxo-3,4-diazabicyclo[4.1.0]hept-4-en-5-yloxy)-3,4-dihydro-2,2-dimethyl-3-hydroxy-2H-1-benzopyran-6-carbonitrile] as the compound, how does the “Average Blood Pressure Fall” value ([1]; 1 Hr., 0.1 mg/kg i.v. + Glibenclamide 30 mg/kg i.v.) read?
**A.** Its value is 15.9 ± 3.7 mmHg.

**Q.** What about the “Average Blood Pressure Fall” value ([1]; 1 Hr., 0.1 mg/kg i.v. + solvent) of the same compound?
**A.** The value was 41.4 ± 6.1 mmHg.

**Q.** And the “Average Blood Pressure Fall” value ([1]; 2 Hrs., 0.1 mg/kg i.v. + Glibenclamide 30 mg/kg i.v.)?
**A.** Its value is 22.0 ± 5.7 mmHg.

**Q.** And the “Average Blood Pressure Fall” value ([1]; 2 Hrs., 0.1 mg/kg i.v. + solvent)?
**A.** Its value is 50.4 ± 4.4 mmHg.

**Q.** What about the “Average Blood Pressure Fall” value ([1]; 3 Hrs., 0.1 mg/kg i.v. + Glibenclamide 30 mg/kg i.v.) of the same compound?
**A.** Its value is 28.0 ± 5.3 mmHg.

**Q.** And the “Average Blood Pressure Fall” value ([1]; 3 Hrs., 0.1 mg/kg i.v. + solvent)?
**A.** Its value is 55.9 ± 4.3 mmHg.

**Q.** What about the “Average Blood Pressure Fall” value ([1]; 4 Hrs., 0.1 mg/kg i.v. + Glibenclamide 30 mg/kg i.v.) of the same compound?
**A.** Its value is 26.9 ± 5.7 mmHg.

**Q.** What about the “Average Blood Pressure Fall” value ([1]; 4 Hrs., 0.1 mg/kg i.v. + solvent) of the same compound?
**A.** Its value is 55.1 ± 4.7 mmHg.

**Q.** And the “potassium channel opening activity (in words)” value ([1]; conclusion from Table 6, glibenclamide antagonism)?
**A.** Its value is “possesses potassium channel opening activity”.

**Q.** What about the “Increase in Renal Blood Flow 1 Hr after Administration” value [2] of the same compound?
**A.** Its value is 34.0 ± 6.1%.

**Q.** What about the “activity in increasing the renal blood flow vs reference drug (in words)” value [2] of the same compound?
**A.** Its value is “more potent activity in increasing the renal blood flow than the reference drug”.

**Q.** And the “safety (in words)” value (male mice)?
**A.** Its value is “highly safe”.

**Q.** What about the LD50 at 336 h (Acute toxicity) of the same compound?
**A.** The LD50 at 336 h was over 2000 mg/kg.

**Q.** Which “Increase in Renal Blood Flow 1 Hr after Administration” value [2] does the source give for CC1(C)Oc2ccc(C#N)cc2[C@@H](OC2=NN(Cc3ccccc3Cl)C(=O)C3CC23)[C@@H]1O (relative stereo) [Example 33, (3S,4R,1'R*,6'S*)-4-(3-(2-chlorobenzyl)-2-oxo-3,4-diazabicyclo[4.1.0]hept-4-en-5-yloxy)-3,4-dihydro-2,2-dimethyl-3-hydroxy-2H-1-benzopyran-6-carbonitrile] here?
**A.** Its value is 14.5 ± 4.0%.

**Q.** And the “activity in increasing the renal blood flow vs reference drug (in words)” value [2]?
**A.** Its value is “more potent activity in increasing the renal blood flow than the reference drug”.

**Q.** What about the “safety (in words)” value (male mice) of the same compound?
**A.** The value was “highly safe”.

**Q.** And the LD50 at 336 h (Acute toxicity)?
**A.** The LD50 at 336 h was over 2000 mg/kg.

**Q.** And the “antihypertensive activity (in words)” value [3]?
**A.** The value was “potent antihypertensive activity”.

**Q.** What about the “duration of activity (in words)” value [3] of the same compound?
**A.** Its value is “long duration of activity”.

**Q.** What about the ED (50 mmHg) ([3]; Rattus norvegicus, systolic blood pressure, read-out: ED50mmHg (effective dose for reducing blood pressure by 50 mmHg)) of the same compound?
**A.** Its ED (50 mmHg) is 0.031 mg/kg.

**Q.** And the “Max. increase of Heat Rate” value [3, 4]?
**A.** The value was 19.4 ± 3.1%.

**Q.** And the “Time for Onset of Max. Activity” value [3, 4]?
**A.** The value was 6.6 ± 0.5 h.

**Q.** What does the source list for CC1(C)Oc2ccc(C#N)cc2[C@@H](OC2=NNC(=O)C3CC23)[C@@H]1O (relative stereo) [Example 47, (3S,4R,1'R*,6'S*)-3,4-Dihydro-2,2-dimethyl-3-hydroxy-4-(2-oxo-3,4-diazabicyclo[4.1.0]-hept-4-en-5-yloxy)-2H-1-benzopyran-6-carbonitrile]?
**A.** Increase in Renal Blood Flow 1 Hr after Administration [2]: 24.3 ± 13.7%; activity in increasing the renal blood flow vs reference drug (in words) [2]: more potent activity in increasing the renal blood flow than the reference drug; potassium channel opening activity (in words) (Potassium channel; conclusion from Table 5): possesses potassium channel opening activity; ECAUC0.2 (effective concentration at which the area under the peak of the 86Rb release rate reached 0.2) (Potassium channel): 0.21; antianginal activity (in words) (male HOS-Donryu rats; 0.01 mg/kg i.v.): significantly reduces the S value; S Value (area of ST segment depression over 5 minutes) (male HOS-Donryu rats): 109 μV.min

**Q.** For CN1N=C(O[C@@H]2c3cc(C#N)ccc3OC(C)(C)[C@H]2O)C2CC2C1=O (relative stereo) [Example 2, 3,4-trans-3,4-dihydro-2,2-dimethyl-3-hydroxy-4-(3-methyl-2-oxo-3,4-diazabicyclo[4.1.0]hept-4-en-5-yloxy)-2H-1-benzopyran-6-carbonitrile], which “safety (in words)” value (male mice) is on record?
**A.** The value was “highly safe”.

**Q.** What about the LD50 at 336 h (Acute toxicity) of the same compound?
**A.** The LD50 at 336 h was over 2000 mg/kg.

**Q.** Which results are given for CC1(C)Oc2ccc(C#N)cc2[C@@H](N2CCCC2=O)[C@@H]1O (relative stereo) [Cromakalim, 3,4trans-3,4-Dihydro-2,2-dimethyl-3-hydroxy-4-(2-oxopyrrolidin-1-yl)-2H-1benzopyran-6-carbonitrile, reference compound]?
**A.** EC50 (Guinea Pig Tracheae): 49 µM; ECAUC0.2 (effective concentration at which the area under the peak of the 86Rb release rate reached 0.2) (Potassium channel): 2.8; S Value (area of ST segment depression over 5 minutes) (male HOS-Donryu rats): 562 μV.min
